Compound in one test: CS(=O)(=O)N1CCN(Cc2cc3nc(-c4cccc5[nH]ncc45)nc(N4CCOCC4)c3s2)CC1 [Pictilisib]
Description: relative viability (nuclei count vs DMSO), 5 days (fraction); higher = more cells survive. A digest of the protocol: (§1)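 Five library-drug doses, separated by factors of √10, were pinned into 1536-well plates holding lung cancer cell lines after an overnight stay at 37 °C. Cells were fixed, permeabilised and Hoechst-stained in one step after 5 days without medium change, then imaged at 4×. Viability compares treated-well with vehicle-well nuclei, counted in MetaXpress, as a median across plates. Passing plates had control CV below 25% and at least one doubling.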

Compound in the next test: NC1(c2ccc(-c3nc4ccn5c(=O)[nH]nc5c4cc3-c3ccccc3)cc2)CCC1 [MK-2206]
The test is described as above. A digest of the protocol:
as §1

Turning to RERF-LC-KJ, the relative viability was 0.974 with Pictilisib (0.02 µM); 0.944 in the test with Pictilisib (0.06325 µM); 0.807 with Pictilisib (0.6325 µM); 0.565 with Pictilisib (1 µM, anchor plate); 0.575 with Pictilisib (2 µM); 0.943 with MK-2206 (0.01 µM). The relative viability came to 0.997 with MK-2206 (0.03162 µM), 0.854 with MK-2206 (0.3162 µM) and 0.919 in the test with MK-2206 (1 µM).

Consider SK-LU-1, for which the relative viability in the test with Pictilisib (0.02 µM) came to 1.06; with Pictilisib (0.06325 µM), 0.963; with Pictilisib (0.6325 µM) it was 0.933; with Pictilisib (1 µM, anchor plate), 0.534; with Pictilisib (2 µM) it was 0.678; in the test with MK-2206 (0.01 µM) it was 1.09. Moreover, the relative viability with MK-2206 (0.03162 µM) was 1.05; with MK-2206 (0.3162 µM), 1.1; with MK-2206 (1 µM) it was 0.944.

Turning to SK-MES-1, the relative viability with Pictilisib (0.02 µM) is 1.04; with Pictilisib (0.06325 µM) it was 1.01; with Pictilisib (0.6325 µM), 0.778; with Pictilisib (1 µM, anchor plate) it was 0.392; in the test with Pictilisib (2 µM) it was 0.365; with MK-2206 (0.01 µM), 0.959. Further, the relative viability with MK-2206 (0.03162 µM) was 1.02; with MK-2206 (0.3162 µM), 0.954; with MK-2206 (1 µM) it was 0.887.

Consider SW 900, for which the relative viability with Pictilisib (0.02 µM) worked out at 1.02; with Pictilisib (0.06325 µM) it was 0.93; with Pictilisib (0.6325 µM), 0.632; with Pictilisib (2 µM) it was 0.565; with MK-2206 (0.01 µM), 0.862; with MK-2206 (0.03162 µM) it was 0.731. The relative viability was 0.866 with MK-2206 (0.3162 µM) and 0.629 with MK-2206 (1 µM).

On to SW 1573, for which the relative viability in the test with Pictilisib (0.02 µM) was determined as 0.966; in the test with Pictilisib (0.06325 µM), 0.958; in the test with Pictilisib (0.6325 µM) it was 0.768; in the test with Pictilisib (1 µM, anchor plate) it was 0.487; in the test with Pictilisib (2 µM), 0.403; with MK-2206 (0.01 µM) it was 0.997. The relative viability amounted to 1.03 with MK-2206 (0.03162 µM), 0.773 with MK-2206 (0.3162 µM) and 0.782 with MK-2206 (1 µM).

The values above are taken from the supplement of paper PMC10307832.
